Test results from patent US4288609A, “Quaternary ammonium derivatives of adamantane with antimicrobic activity” (priority 1976, dated 1981).
Several values for one entry are separate records, joined by “and”; a condition that tells them apart may be missing. Equal entries are not always repeated. Where two headings read alike, the source gives them in different places.

Legend:
Klens. Pneum. ISM = assay: M.I.C. in vitro, gram- Klens. Pneum. (Table 1); assay type: cell-based; conditions: for MIC: read-out: M.I.C.
Outline: (§1)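 Inoculate culture media with a predetermined germ count, then add measured quantities of compound. Incubate for 24 or 48 hours at 30° or 37° C. as suited to each micro-organism. Assess growth in the broth and record the lowest inhibitory concentration in γ/ml.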

[1] = system: Trichophyton Mentagrophytes; assay: Topical activity upon dermatophytis from Trichophyton in cavies (Table 6); assay type: in vivo, Albino cavies; conditions: for evaluation of seriousness of infection (A.D.I.): average index
Protocol: Albino cavies of 250-300 g are infected, after depilation and scarification of a circular area of dorsal skin upon which there are supplied 0.1 ml of a suspension of microconidia of Trichophyton Mentagrophytes from the Pasteur Institute collection, obtained from a culture of 15 days upon Saboureaud agar. 24 Hours after infection topical treatment is started and is continued for two weeks (once per day).
The compounds to be tested are dissolved or suspended at the desired concentration, in a water-alcohol mixture (75/25 v/v) containing 0.75% by weight of carboxymethyl-cellulose (CMC). […] Each single application is carried out using 0.25 ml of the suspension or solution obtained as described above.
Fourteen days after infection the lesions are assessed. Assessment is carried out by attributing index numbers depending upon the seriousness of the lesions formed, as follows:
The substances under examination were tested at concentrations of 5 and 2.5% by weight.

Staph.Aureus Tour = assay: M.I.C. in vitro, gram+ Staph. Aureus (Table 1); assay type: cell-based, Staphylococcus Aureus; conditions: for MIC: Staphylococcus aureus, read-out: M.I.C.
Outline: as §1

[2] = system: all the micro-organisms tested; assay: Speed of sterilising action, all micro-organisms; assay type: cell-based; conditions: even with a very low concentration
Protocol: (§2) The strains, inoculants, culture broths and experimental methods are as already seen for calculating the M.I.C. in vitro. The antimicrobic substances were tested at concentrations of 0.1, 0.25, 0.5 and 1 g/l, the contact times taken into consideration are 0, 1, 2.5, 5, 7.5, 10, 15, 30 and 60 minutes.
(§3) The samples which at the 7th day of incubation still had no growth of micro-organisms which could be observed macroscopically and/or microscopically were considered sterile.
(§4) The results are recorded in Table 3 in terms of sterilization time expressed in minutes.

[3] = system: Trichophyton Mentagrophytes Ist. Pasteur; assay: Speed of sterilising action, Trichophyton Mentagrophytes (Table 3); assay type: cell-based
Protocol: as §2, §3, §4

[4] = system: Trich. Vaginalis ISM 66/22; assay: MIC protozoa, Trichomonas vaginalis (Table 2); assay type: cell-based; conditions: +10% serum (head), Kupferberg Trichomonas broth with 5% of horse serum
Outline: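 Test substance was added at set concentrations to Kupferberg Trichomonas broth with 5% horse serum, inoculated with T. vaginalis or T. foetus at 3.5% of medium volume. Growth was assessed after 24 or 48 h incubation at 30° or 37 °C. MIC is the minimum concentration inhibiting growth.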

[5] = system: Staphylococcus Aureus Tour; assay: Speed of sterilising action, Staphylococcus Aureus (Table 3); assay type: cell-based
Protocol: as §2, §3, §4

[6] = system: Escherichia Coli SKF 12140; assay: Speed of sterilising action, Escherichia Coli (Table 3); assay type: cell-based
Protocol: as §2, §3, §4

[7] = system: Trych. Mentagr. 1st.Pastuer; assay: MIC mildews, Trichophyton mentagrophytes (Table 2); assay type: cell-based; conditions: Sabourand broth
[8] = Acute oral toxicity in mice (Table 4); conditions: mouse, in vivo, po, LD50, oral, mice, 14 days
Protocol: The substances were administered orally to groups of 10 female mice CF1 of average weight of about 20 grams, in aqueous solution and in such way that the total volume administered would be in each case 1 ml/100 g of weight.

[9] = system: Trichomonas Vaginalis ISM 66/22; assay: Speed of sterilising action, Trichomonas Vaginalis (Table 3); assay type: cell-based
Protocol: as §2, §3, §4

[10] = Trichomonas vaginalis, read-out: MIC
[11] = Trichophyton mentagrophytes, +10% serum, read-out: MIC
[12] = Trichophyton mentagrophytes, without serum, read-out: MIC

SMILES | MIC (Klens. Pneum. ISM; +10% serum) | in vivo activity against Trichophyton Mentagrophytes (in words) [1] | MIC (Staph.Aureus Tour; without serum) | sterilising action (in words) [2] | sterilization time ([3]; 0.1 g/l) | sterilization time ([3]; 0.25 g/l) | sterilization time ([3]; 0.5 g/l) | sterilization time ([3]; 1 g/l) | sterilization time ([5]; 0.1 g/l) | sterilization time ([5]; 0.25 g/l) | sterilization time ([5]; 0.5 g/l) | sterilization time ([5]; 1 g/l) | sterilization time ([6]; 0.1 g/l) | sterilization time ([6]; 0.25 g/l) | sterilization time ([6]; 0.5 g/l) | sterilization time ([6]; 1 g/l) | LD50 at 336 h [8] | sterilization time ([9]; 0.1 g/l) | sterilization time ([9]; 0.25 g/l) | sterilization time ([9]; 0.5 g/l) | other results
CCCCCCCCCC[N+](C)(C)CCOC(=O)C12CC3CC(CC(C3)C1)C2 (single isomer, unassigned) [Example 1, n-Decyl-dimethyl-(1-adamantane-carboxy)-ethyl-ammonium bromide] | 50 µg/mL | excellent "in vivo" activity against Trichophyton Mentagrophytes | < 0.1 µg/mL | swift sterilising action on all the micro-organisms tested | 60 min | 30 min | 15 min | 5 min | 7.5 min | 2.5 min | 1 min | 1 min | 60 min | 60 min | 15 min | 5 min | 910 mg/kg | 2.5 min | 1 min | 1 min | M.I.C. (Klens. Pneum. ISM; without serum): 5 µg/mL; A.D.I. (% of control group) ([1]; 2.5% by weight): 31.09%; healing % (100-A.D.I. %) ([1]; 2.5% by weight): 68.91%; evaluation of seriousness of infection (A.D.I.) ([1]; 2.5% by weight): 0.83; A.D.I. (% of control group) ([1]; 5% by weight): 12.36%; healing % (100-A.D.I. %) ([1]; 5% by weight): 87.64% and ~90%; evaluation of seriousness of infection (A.D.I.) ([1]; 5% by weight): 0.33; M.I.C. (Staph.Aureus Tour; +10% serum): 2 µg/mL; MIC [4]: 5 µg/mL; MIC ([7]; +10% serum): 5 µg/mL; MIC ([7]; without serum): 0.1 µg/mL; sterilization time ([9]; 1 g/l): 1 min
CCCCCCCCCCCC[N+](C)(C)CCNC(=O)C12CC3CC(CC(C3)C1)C2 [Example 8] | 50 µg/mL | excellent "in vivo" activity against Trichophyton Mentagrophytes | < 0.1 µg/mL | swift sterilising action on all the micro-organisms tested | 60 min | 60 min | 10 min | 5 min |  |  |  |  | 60 min | 60 min | 10 min | 7.5 min | 760 mg/kg |  |  |  | MIC (Klens. Pneum. ISM; without serum): 5 µg/mL; MIC (Staph.Aureus Tour; +10% serum): 5 µg/mL; MIC [4, 10]: 2 µg/mL; MIC [7, 11]: 5 µg/mL; MIC [7, 12]: 0.1 µg/mL
CCCCCCCCCCCC[N+](C)(C)CCOC(=O)C12CC3CC(CC(C3)C1)C2 [Example 4] | 100 µg/mL | excellent "in vivo" activity against Trichophyton Mentagrophytes | < 0.1 µg/mL | swift sterilising action on all the micro-organisms tested | 60 min | 60 min | 15 min | 5 min | 7.5 min | 5 min | 1 min | 1 min | 60 min | 60 min | 30 min | 10 min | 820 mg/kg | 2.5 min | 1 min | 1 min | MIC (Klens. Pneum. ISM; without serum): 2 µg/mL; MIC (Staph.Aureus Tour; +10% serum): 5 µg/mL; MIC [4, 10]: 5 µg/mL; MIC [7, 11]: 5 µg/mL; MIC [7, 12]: 0.1 µg/mL; sterilization time ([9]; 1 g/l): 1 min
